# Measured values as given in PubChem BioAssay (NCI).
#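 48-hour exposure; five concentrations; linearly interpolated endpoints. Definition used: TGI = concentration required for complete inhibition of growth.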
# Legend:
# Test in all cases: growth of human tumour cells (NCI), 48 h
# MOLT-4 leukemia = tested on: MOLT-4 leukemia
# HT29 colon = tested on: HT29 colon
# SN12C renal = tested on: SN12C renal
# CAKI-1 renal = tested on: CAKI-1 renal
# SNB-75 CNS = tested on: SNB-75 CNS
# SK-MEL-2 melanoma = tested on: SK-MEL-2 melanoma
# SK-OV-3 ovarian = tested on: SK-OV-3 ovarian
# A498 renal = tested on: A498 renal
# IGROV1 ovarian = tested on: IGROV1 ovarian
# DU-145 prostate = tested on: DU-145 prostate
# UACC-257 melanoma = tested on: UACC-257 melanoma
# LOX IMVI melanoma = tested on: LOX IMVI melanoma
# HOP-62 NSCLC = tested on: HOP-62 NSCLC
# T-47D breast = tested on: T-47D breast
# OVCAR-5 ovarian = tested on: OVCAR-5 ovarian
# SF-268 CNS = tested on: SF-268 CNS
# OVCAR-4 ovarian = tested on: OVCAR-4 ovarian
# HCC-2998 colon = tested on: HCC-2998 colon
# HS 578T breast = tested on: HS 578T breast
# A549 NSCLC = tested on: A549 NSCLC
# MDA-MB-435 = tested on: MDA-MB-435
# SW-620 colon = tested on: SW-620 colon
# SF-295 CNS = tested on: SF-295 CNS
# ACHN renal = tested on: ACHN renal
# UO-31 renal = tested on: UO-31 renal
# UACC-62 melanoma = tested on: UACC-62 melanoma
# NCI/ADR-RES ovarian = tested on: NCI/ADR-RES ovarian
# NCI-H460 lung = tested on: NCI-H460 lung
# OVCAR-8 ovarian = tested on: OVCAR-8 ovarian
# COLO 205 colon = tested on: COLO 205 colon
# HCT-116 colon = tested on: HCT-116 colon
# OVCAR-3 ovarian = tested on: OVCAR-3 ovarian
# SNB-19 CNS = tested on: SNB-19 CNS
# NCI-H226 lung = tested on: NCI-H226 lung
# HOP-92 NSCLC = tested on: HOP-92 NSCLC
# EKVX NSCLC = tested on: EKVX NSCLC
# PC-3 prostate = tested on: PC-3 prostate
# CCRF-CEM leukemia = tested on: CCRF-CEM leukemia
# KM12 colon = tested on: KM12 colon
# HL-60(TB) leukemia = tested on: HL-60(TB) leukemia
# U251 CNS = tested on: U251 CNS
# SK-MEL-28 melanoma = tested on: SK-MEL-28 melanoma
# RXF 393 renal = tested on: RXF 393 renal
# BT-549 breast = tested on: BT-549 breast
# K-562 leukemia = tested on: K-562 leukemia
# TK-10 renal = tested on: TK-10 renal
# HCT-15 colon = tested on: HCT-15 colon
# MDA-N = tested on: MDA-N
# M14 melanoma = tested on: M14 melanoma
# RPMI-8226 leukemia = tested on: RPMI-8226 leukemia
# 786-0 renal = tested on: 786-0 renal
# MCF7 breast = tested on: MCF7 breast
# MDA-MB-231 breast = tested on: MDA-MB-231 breast
# NCI-H23 lung = tested on: NCI-H23 lung
# SF-539 CNS = tested on: SF-539 CNS
# SK-MEL-5 melanoma = tested on: SK-MEL-5 melanoma
# SR leukemia = tested on: SR leukemia
# NCI-H522 lung = tested on: NCI-H522 lung
# MALME-3M melanoma = tested on: MALME-3M melanoma
compound,measurement,setting,value
Cc1[nH]c2ncn(/N=C/c3ccccc3O)c(=N)c2c1Cc1ccccc1,TGI,MOLT-4 leukemia,> 100 µM
same,TGI,HT29 colon,> 100 µM
same,TGI,SN12C renal,> 100 µM
same,TGI,CAKI-1 renal,> 100 µM
same,TGI,SNB-75 CNS,> 100 µM
same,TGI,SK-MEL-2 melanoma,83.9 µM
same,TGI,SK-OV-3 ovarian,> 100 µM
same,TGI,A498 renal,> 100 µM
same,TGI,IGROV1 ovarian,> 100 µM
same,TGI,DU-145 prostate,> 100 µM
same,TGI,UACC-257 melanoma,> 100 µM
same,TGI,LOX IMVI melanoma,> 100 µM
same,TGI,HOP-62 NSCLC,> 100 µM
same,TGI,T-47D breast,> 100 µM
same,TGI,OVCAR-5 ovarian,> 100 µM
same,TGI,SF-268 CNS,> 100 µM
same,TGI,OVCAR-4 ovarian,> 100 µM
same,TGI,HCC-2998 colon,88.7 µM
same,TGI,HS 578T breast,> 100 µM
same,TGI,A549 NSCLC,> 100 µM
same,TGI,MDA-MB-435,48.8 µM
same,TGI,SW-620 colon,> 100 µM
same,TGI,SF-295 CNS,> 100 µM
same,TGI,ACHN renal,> 100 µM
same,TGI,UO-31 renal,> 100 µM
same,TGI,UACC-62 melanoma,> 100 µM
same,TGI,NCI/ADR-RES ovarian,> 100 µM
same,TGI,NCI-H460 lung,> 100 µM
same,TGI,OVCAR-8 ovarian,> 100 µM
same,TGI,COLO 205 colon,> 100 µM
same,TGI,HCT-116 colon,> 100 µM
same,TGI,OVCAR-3 ovarian,71.8 µM
same,TGI,SNB-19 CNS,> 100 µM
same,TGI,NCI-H226 lung,> 100 µM
same,TGI,HOP-92 NSCLC,> 100 µM
same,TGI,EKVX NSCLC,> 100 µM
same,TGI,PC-3 prostate,46.6 µM
same,TGI,CCRF-CEM leukemia,> 100 µM
same,TGI,KM12 colon,> 100 µM
same,TGI,HL-60(TB) leukemia,66.8 µM
same,TGI,U251 CNS,41.2 µM
same,TGI,SK-MEL-28 melanoma,> 100 µM
same,TGI,RXF 393 renal,> 100 µM
same,TGI,BT-549 breast,> 100 µM
same,TGI,K-562 leukemia,> 100 µM
same,TGI,TK-10 renal,> 100 µM
same,TGI,HCT-15 colon,> 100 µM
same,TGI,MDA-N,93.8 µM
same,TGI,M14 melanoma,> 100 µM
same,TGI,RPMI-8226 leukemia,> 100 µM
same,TGI,786-0 renal,> 100 µM
same,TGI,MCF7 breast,> 100 µM
same,TGI,MDA-MB-231 breast,> 100 µM
same,TGI,NCI-H23 lung,> 100 µM
same,TGI,SF-539 CNS,> 100 µM
CC1(C)O[C@H]2Cn3c(c(C#N)c4ccccc43)[C@H]2O1,TGI,HT29 colon,> 100 µM
same,TGI,SN12C renal,> 100 µM
same,TGI,CAKI-1 renal,> 100 µM
same,TGI,SNB-75 CNS,> 100 µM
same,TGI,SK-MEL-2 melanoma,> 100 µM
same,TGI,SK-OV-3 ovarian,> 100 µM
same,TGI,IGROV1 ovarian,> 100 µM
same,TGI,DU-145 prostate,> 100 µM
same,TGI,SK-MEL-5 melanoma,> 100 µM
same,TGI,HOP-62 NSCLC,> 100 µM
same,TGI,T-47D breast,> 100 µM
same,TGI,OVCAR-5 ovarian,> 100 µM
same,TGI,SF-268 CNS,> 100 µM
same,TGI,OVCAR-4 ovarian,> 100 µM
same,TGI,HCC-2998 colon,> 100 µM
same,TGI,HS 578T breast,> 100 µM
same,TGI,A549 NSCLC,> 100 µM
same,TGI,MDA-MB-435,> 100 µM
same,TGI,SF-295 CNS,> 100 µM
same,TGI,ACHN renal,> 100 µM
same,TGI,UO-31 renal,> 100 µM
same,TGI,UACC-62 melanoma,> 100 µM
same,TGI,NCI/ADR-RES ovarian,> 100 µM
same,TGI,SR leukemia,> 100 µM
same,TGI,NCI-H460 lung,> 100 µM
same,TGI,COLO 205 colon,> 100 µM
same,TGI,HCT-116 colon,> 100 µM
same,TGI,OVCAR-3 ovarian,> 100 µM
same,TGI,SNB-19 CNS,> 100 µM
same,TGI,NCI-H522 lung,> 100 µM
same,TGI,HOP-92 NSCLC,> 100 µM
same,TGI,EKVX NSCLC,> 100 µM
same,TGI,KM12 colon,> 100 µM
same,TGI,HL-60(TB) leukemia,> 100 µM
same,TGI,U251 CNS,> 100 µM
same,TGI,SK-MEL-28 melanoma,> 100 µM
same,TGI,BT-549 breast,> 100 µM
same,TGI,TK-10 renal,> 100 µM
same,TGI,HCT-15 colon,> 100 µM
same,TGI,MDA-N,> 100 µM
same,TGI,M14 melanoma,> 100 µM
same,TGI,RPMI-8226 leukemia,> 100 µM
same,TGI,786-0 renal,> 100 µM
same,TGI,MCF7 breast,> 100 µM
same,TGI,MDA-MB-231 breast,> 100 µM
same,TGI,NCI-H23 lung,> 100 µM
same,TGI,SF-539 CNS,> 100 µM
same,TGI,MALME-3M melanoma,> 100 µM
